From patent US7087623B2, “Thiazole and other heterocyclic ligands for mammalian dopamine, muscarinic and serotonin receptors and transporters, and methods of use thereof” (Sepracor Inc., priority 2001, dated 2006)
Read-outs that look alike come from different tables or passages of the source.

How the values were obtained:
[1] = target: T1, human serotonin 5-HT6 receptor (Homo sapiens, UniProt P50406); experiment: Radioligand binding assay, human 5-HT6 receptors ([3H]LSD)
T1 construct: expressed in transfected cells; host or cells: HeLa/E6-7
Experimental: (§1) The human 5-HT2a and 5-HT2b screens were conducted according to Bonhaus, D. W. et al. Br. J. Pharmacol. 1995, 115, 622. The human 5-HT2c screen was conducted according to Wolf, W. A. et al. J. Neurochem. 1997, 69, 1449. The human 5-HT6 screen was conducted according to Monsma, F. J. et al. Mol. Pharmacol. 1993, 43, 320.
This assay measures binding of [^3H]LSD (lysergic acid diethylamide) to human serotonin 5-HT6 receptors. HeLa/E6–7 cells stably transfected with a plasmid encoding the human serotonin 5-HT6 receptor were used to prepare membranes in modified Tris-HCl pH 7.4 buffer using standard techniques. A 30 μg aliquot of membrane was incubated with 1.5 nM [^3H]LSD for 120 minutes at 37° C. Non-specific binding was estimated in the presence of 5 μM 5-HT. Membranes were filtered and washed 3 times and the filters were counted to determine [^3H]LSD specifically bound. See Monsma, Jr., F. J. et al. “Cloning and expression of a novel serotonin receptor with high affinity for tricyclic psychotropic drugs” Mol. Pharmacol. 43: 320–327, 1993.
(§2) The human 5-HT2a and 5-HT2b screens were conducted according to Bonhaus, D. W. et al. Br. J. Pharmacol. 1995, 115, 622. The human […], W. A. et al. J. Neurochem. 1997, 69, 1449. The human 5-HT6 screen was conducted according to Monsama, F. J. et al. Mol. Pharmacol. 1993, 43, 320. The assay to human D3 receptors was conducted according to Sokoloff, P. et al. Nature 1990, 347;146. The human dopamine transporter assay was conducted according to Gu, H. et. al. J. Biol. Chem. 1994, 269 (10);7124; and Giros, B. et al. Trends. Pharmacol. Sci. 1993, 14: 43. The human muscarinic M1–M4 screens were conducted according to Buckley N. J. et al. Mol. Pharmacol. 1989, 35:469.

[2] = target: T2, human dopamine D3 receptor (Homo sapiens, UniProt P35462); experiment: Radioligand binding assay, human dopamine D3 receptors ([3H]Spiperone)
T2 construct: expressed in transfected cells; host or cells: CHO
Experimental: The assay for binding to human D3 receptors was conducted according to Sokoloff, P. et al. Nature 1990, 347, 146.
CHO cells stably transfected with a plasmid encoding the human dopamine D3 receptor were used to prepare membranes in modified Tris-HCl pH 7.4 buffer using standard techniques. […] Non-specific binding was estimated in the presence of 25 μM S-(−)-sulpiride. […] See Sokoloff, P. et al. “Molecular cloning and characterization of a novel dopamine receptor (D3) as a target for neuroleptics” Nature 347: 146–151, 1990.
as §2

[3] = target: T3, human dopamine transporter (Homo sapiens, UniProt Q01959); experiment: Binding to human dopamine transporter ([125I]RTI-55); conditions: human; Example 100 table; read-out: IC50 (nM) DAT
T3 construct: expressed in transfected cells; host or cells: CHO-K1
Experimental: CHO-K1 cell membranes stably transfected with a plasmid encoding the human dopamine transporter were prepared in modified Tris-HCl pH 7.4 buffer using standard techniques. […] Non-specific binding was estimated in the presence of 10 μM nomifensine. […] Trends. […]

[4] = target: T4, human serotonin 5-HT2A receptor (Homo sapiens, UniProt P28223); experiment: Radioligand binding assay, human 5-HT2A receptors ([3H]Ketanserin)
T4 construct: expressed in transfected cells; host or cells: CHO-K1
Experimental: as §1
CHO-K1 cells stably transfected with a plasmid encoding the human serotonin 5-HT2A receptor were used to prepare membranes in modified Tris-HCl pH 7.7 buffer using standard techniques. […] Non-specific binding was estimated in the presence of 1 μM mianserin. […] See Bonhaus, D. W. et al. “The pharmacology and distribution of human 5-hydroxytryptamine2B (5-HT2B) receptor gene products: comparison with 5-HT2A and 5-HT2C receptors” Brit. J. Pharmacol. 115: 622–628, 1995; and Saucier, C and Albert, P. R. “Identification of an endogenous 5-hydroxytryptamine2A receptor in NIH-3T3 cells: agonist-induced down-regulation involves decreases in receptor RNA and number” J. Neurochem. 68: 1998–2011, 1997.
as §2

[5] = target: T5, human serotonin 5-HT2B receptor (Homo sapiens, UniProt P41595); experiment: Radioligand binding assay, human 5-HT2B receptors ([3H]LSD)
T5 construct: expressed in transfected cells; host or cells: CHO-K1
Experimental: This assay measures binding of [^3H]LSD to human serotonin 5-HT2B receptors. CHO-K1 cells stably transfected with a plasmid encoding the human serotonin 5-HT2B receptor were used to prepare membranes in modified Tris-HCl pH 7.4 buffer using standard techniques. […] Non-specific binding was estimated in the presence of 10 μM serotonin. Membranes were filtered and washed 3 times and the filters were counted to determine [^3H]LSD specifically bound. See Bonhaus, D. W. et al. “The pharmacology and distribution of human 5-hydroxytryptamine2B (5-HT2B) receptor gene products: comparison with 5-HT2A and 5-HT2C receptors” Brit.
The human 5-HT2b screen was conducted according to Wolf, W. A. et al. J. Neurochem.

[6] = target: T6, human serotonin 5-HT2C receptor (Homo sapiens, UniProt P28335); experiment: Radioligand binding assay, human 5-HT2C receptors ([3H]Mesulergine)
T6 construct: expressed in transfected cells; host or cells: CHO-K1
T6 sequence (P28335 33-458): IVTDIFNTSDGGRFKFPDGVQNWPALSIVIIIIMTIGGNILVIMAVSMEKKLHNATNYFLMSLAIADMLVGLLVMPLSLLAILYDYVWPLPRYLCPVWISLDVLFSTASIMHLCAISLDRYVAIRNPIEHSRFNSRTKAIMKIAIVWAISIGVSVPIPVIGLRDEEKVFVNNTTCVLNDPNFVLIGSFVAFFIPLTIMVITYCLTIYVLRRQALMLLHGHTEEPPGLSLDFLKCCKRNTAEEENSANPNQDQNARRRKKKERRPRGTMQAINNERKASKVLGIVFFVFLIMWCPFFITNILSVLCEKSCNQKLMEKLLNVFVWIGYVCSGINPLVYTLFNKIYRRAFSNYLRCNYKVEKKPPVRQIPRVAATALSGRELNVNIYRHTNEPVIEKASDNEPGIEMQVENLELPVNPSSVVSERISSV
Experimental: as §1
CHO-K1 cells stably transfected with a plasmid encoding the human serotonin 5-HT2C receptor were used to prepare membranes in modified Tris-HCl pH 7.7 buffer using standard techniques. […] Non-specific binding was estimated in the presence of 1 μM mianserin. […] See Wolf, W. A. and Schutz, J. S. “The serotonin 5-HT2C receptor is a prominent serotonin receptor in basal ganglia: evidence from functional studies on serotonin-mediated phosphoinositide hydrolysis” J. Neurochem. 69: 1449–1458, 1997.
as §2

[7] = human, Example 100 table, read-out: IC50 (nM) 5-HT6
[8] = human, Example 100 table, read-out: IC50 (nM) D3
[9] = human 5-HT2a, Example 16 table, read-out: IC50 (nM) 5-HT2a
[10] = human 5-HT2b, Example 16 table, read-out: IC50 (nM) 5-HT2b
[11] = human 5-HT2c, Example 16 table, read-out: IC50 (nM) 5-HT2c
[12] = human 5-HT6, Example 16 table, read-out: IC50 (nM) 5-HT6
[13] = Example 20 table, read-out: IC50 (nM) Against Human D3 Receptors

T4 sequence (P28223 whole entry): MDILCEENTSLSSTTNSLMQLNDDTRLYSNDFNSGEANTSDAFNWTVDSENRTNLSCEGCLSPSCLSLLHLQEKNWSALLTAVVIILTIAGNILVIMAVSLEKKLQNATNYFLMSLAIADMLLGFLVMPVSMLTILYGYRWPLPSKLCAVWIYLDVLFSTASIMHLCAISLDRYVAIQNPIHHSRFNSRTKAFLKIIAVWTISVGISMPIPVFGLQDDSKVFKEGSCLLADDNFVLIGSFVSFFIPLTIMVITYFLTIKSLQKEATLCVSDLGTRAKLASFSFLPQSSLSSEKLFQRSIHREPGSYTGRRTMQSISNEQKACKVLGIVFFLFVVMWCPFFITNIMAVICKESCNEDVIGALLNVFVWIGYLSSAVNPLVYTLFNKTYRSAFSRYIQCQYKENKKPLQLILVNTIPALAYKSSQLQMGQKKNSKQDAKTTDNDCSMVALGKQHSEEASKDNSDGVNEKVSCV
T1 sequence (P50406 whole entry): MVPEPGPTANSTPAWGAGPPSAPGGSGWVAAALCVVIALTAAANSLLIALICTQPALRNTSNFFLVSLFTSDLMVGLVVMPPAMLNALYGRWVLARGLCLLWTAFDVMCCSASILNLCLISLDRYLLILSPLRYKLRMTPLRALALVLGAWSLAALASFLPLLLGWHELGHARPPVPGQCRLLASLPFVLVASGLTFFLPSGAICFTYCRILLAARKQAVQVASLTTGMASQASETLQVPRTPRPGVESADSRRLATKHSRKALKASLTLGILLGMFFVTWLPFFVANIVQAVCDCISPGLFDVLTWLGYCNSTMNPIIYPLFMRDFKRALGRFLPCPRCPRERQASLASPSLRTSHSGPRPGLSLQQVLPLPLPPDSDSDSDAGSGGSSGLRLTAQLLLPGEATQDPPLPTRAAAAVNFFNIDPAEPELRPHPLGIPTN
T2 sequence (P35462 whole entry): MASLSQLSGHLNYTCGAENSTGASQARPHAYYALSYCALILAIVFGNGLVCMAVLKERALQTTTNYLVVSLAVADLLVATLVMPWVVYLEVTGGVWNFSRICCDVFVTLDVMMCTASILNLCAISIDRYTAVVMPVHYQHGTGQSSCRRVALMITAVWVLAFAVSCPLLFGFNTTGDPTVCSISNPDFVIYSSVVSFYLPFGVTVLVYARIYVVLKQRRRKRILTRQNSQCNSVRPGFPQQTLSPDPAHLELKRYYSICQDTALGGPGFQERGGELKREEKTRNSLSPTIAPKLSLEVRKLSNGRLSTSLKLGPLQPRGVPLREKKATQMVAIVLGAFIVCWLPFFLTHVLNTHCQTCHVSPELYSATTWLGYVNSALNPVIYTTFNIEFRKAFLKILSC
T5 sequence (P41595 whole entry): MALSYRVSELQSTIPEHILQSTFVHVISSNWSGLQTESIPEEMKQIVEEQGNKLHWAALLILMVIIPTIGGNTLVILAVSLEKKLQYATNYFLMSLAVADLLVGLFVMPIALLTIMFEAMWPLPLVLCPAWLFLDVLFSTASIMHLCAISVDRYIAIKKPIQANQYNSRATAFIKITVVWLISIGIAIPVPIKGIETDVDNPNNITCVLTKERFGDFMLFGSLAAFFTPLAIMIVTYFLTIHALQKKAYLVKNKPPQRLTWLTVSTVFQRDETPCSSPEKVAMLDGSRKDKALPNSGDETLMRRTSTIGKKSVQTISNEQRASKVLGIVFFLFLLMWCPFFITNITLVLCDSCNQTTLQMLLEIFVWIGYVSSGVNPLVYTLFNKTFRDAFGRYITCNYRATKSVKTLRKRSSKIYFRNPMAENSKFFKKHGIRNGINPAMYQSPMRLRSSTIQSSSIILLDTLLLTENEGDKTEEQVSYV
T3 sequence (Q01959 whole entry): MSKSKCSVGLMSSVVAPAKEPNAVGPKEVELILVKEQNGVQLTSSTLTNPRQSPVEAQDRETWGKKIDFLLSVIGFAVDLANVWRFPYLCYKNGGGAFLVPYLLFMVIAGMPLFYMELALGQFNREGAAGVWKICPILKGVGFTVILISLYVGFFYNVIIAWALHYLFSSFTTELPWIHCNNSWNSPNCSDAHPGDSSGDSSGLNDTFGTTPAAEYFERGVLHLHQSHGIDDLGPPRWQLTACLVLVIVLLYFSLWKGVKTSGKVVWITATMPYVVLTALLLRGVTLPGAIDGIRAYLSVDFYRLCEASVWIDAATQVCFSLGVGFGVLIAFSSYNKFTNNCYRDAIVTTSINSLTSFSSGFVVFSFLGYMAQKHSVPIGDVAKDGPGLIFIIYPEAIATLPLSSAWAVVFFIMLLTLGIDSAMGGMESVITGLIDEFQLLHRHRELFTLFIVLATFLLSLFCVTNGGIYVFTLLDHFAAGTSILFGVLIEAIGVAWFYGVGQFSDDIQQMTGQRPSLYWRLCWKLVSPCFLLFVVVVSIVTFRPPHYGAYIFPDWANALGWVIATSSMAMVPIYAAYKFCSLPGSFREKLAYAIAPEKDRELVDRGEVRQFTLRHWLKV

SMILES | IC50 [4, 9] [nM] | IC50 [5, 10] [nM] | IC50 [6, 11] [nM] | IC50 [1, 12] [nM] | IC50 [2, 13] [nM] | other results
CN1CCCC1CCNc1nc(C2(c3ccc(Cl)cc3)CCOCC2)cs1 (racemic) [Compound 125, {4-[4-(4-chlorophenyl)-tetrahydropyran-4-yl]-thiazol-2-yl}-[2-(1-methyl-pyrrolidin-2-yl)-ethyl]-amine] | – | – | – | – | – | IC50 [1, 7]: > 1000 nM; IC50 [2, 8]: > 1000 nM; IC50 [3]: > 1000 nM
CN1CCN(c2nc(Cc3csc4ccc(Cl)cc34)cs2)CC1 [Compound 33] | < 1000 | < 10 | < 100 | < 1000 | < 1000 | –
CN1CCN(c2nc(C3(c4ccc(Cl)cc4)CCCCC3)cs2)CC1 [Compound 34] | > 1000 | < 100 | < 100 | < 1000 | < 1000 | –
CN1CCN(c2nc(C3(c4ccc(C(F)(F)F)cc4)CCOCC3)cs2)CC1 [Compound 43] | > 1000 | > 1000 | > 1000 | < 1000 | < 1000 | –
CN1CCN(c2nc(C3(c4ccc(F)cc4)CCOCC3)cs2)CC1 [Compound 47] | – | – | – | – | – | IC50 ([4]; IC50 (nM) 5-HT2a, human 5-HT2a, Example 16 table): > 1000 nM; IC50 [5]: > 1000 nM; IC50 ([6]; IC50 (nM) 5-HT2c, human 5-HT2c, Example 16 table): > 1000 nM; IC50 ([1]; IC50 (nM) 5-HT6, human 5-HT6, Example 16 table): < 1000 nM; IC50 ([2]; IC50 (nM) Against Human D3 Receptors, Example 20 table): > 1000 nM
COc1ccc(C2(c3csc(N4CCN(C)CC4)n3)CCOCC2)cc1 [Compound 51] | > 1000 | > 1000 | > 1000 | < 1000 | > 1000 | –
CN1CCN(c2nc(C3(c4ccc(OC(F)(F)F)cc4)CCOCC3)cs2)CC1 [Compound 55] | < 1000 | > 1000 | < 1000 | > 1000 | < 1000 | –
COc1cccc(C2(c3csc(N4CCN(C)CC4)n3)CCOCC2)c1 [Compound 67] | – | – | – | – | – | IC50 ([4]; human, Example 100 table, read-out: IC50 (nM) 5-HT2A): > 1000 nM; IC50 ([5]; human, Example 100 table, read-out: IC50 (nM) 5-HT2B): > 1000 nM; IC50 ([6]; human, Example 100 table, read-out: IC50 (nM) 5-HT2C): > 1000 nM; IC50 [1, 7]: < 1000 nM; IC50 [2, 8]: > 1000 nM

More lines, main results first:

IC50 [4, 9] [nM] | IC50 [5, 10] [nM] | IC50 [6, 11] [nM] | IC50 [1, 12] [nM] | IC50 [2, 13] [nM] | SMILES | other results
< 1000 | < 1000 | < 1000 | < 1000 | > 1000 | Clc1ccc(C2(c3csc(C4CCNCC4)n3)CCC2)cc1 [Compound 30, 4-{4-[1-(4-chlorophenyl)cyclobutyl]thiazol-2-yl}-piperidine] | –
> 1000 | < 1000 | < 1000 | < 1000 | < 1000 | CN1CCC(c2nc(C3(c4ccc(Cl)cc4)CCC3)cs2)CC1 [Compound 31] | –
> 1000 | > 1000 | > 1000 | < 1000 | > 1000 | Clc1cccc(C2(c3csc(C4CCCNC4)n3)CCOCC2)c1 (stereo not shown) [Compound 38] | –
< 1000 | < 1000 | < 1000 | < 1000 | > 1000 | Clc1ccc(C2(c3nc(N4CCNCC4)sc3Cl)CCOCC2)cc1 [Compound 39] | –
